Measured values as given in patent publication US9308198B2, “Treatment, prevention, and reversal of alcohol-induced brain disease” (priority 2006, dated 2016).
Where two headings read alike, the source gives them in different places.

How the values were obtained:
[1] = tested on: acetylcholinesterase (AChE) mRNA; details: ethanol-exposed pup cerebellar tissue vs control
Experimental: (§1) Total RNA was isolated from brain tissue using TRIzol reagent (Invitrogen, Carlsbad, Calif.) according to the manufacturer's protocol. RNA concentrations and purity were determined from the absorbances measured at 260 nm and 280 nm. RNA (2 μg) was reverse transcribed using the AMV First Strand cDNA synthesis kit (Roche Diagnostics Corporation, Indianapolis, Ind.) and random oligodeoxynucleotide primers. Real time quantitative RT-PCR was used to measure mRNA levels of insulin, IGF-I, and IGF-II growth factors, their corresponding receptors, neuronal (Hu), astrocytic (glial fibrillary acidic protein; GFAP), oligodendroglial (myelin-associated glycoprotein-1; MAG-1), microglial (AIF1), and endothelial (endothelin-1; ET-1) cell genes, acetyl cholinesterase (AChE), and choline acetyltransferase (ChAT). Ribosomal 18S RNA levels measured in parallel reactions were used to calculate relative abundance of the mRNA transcripts (Myers et al., Trends Biochem. Sci. 19:289 (1994); Baltensperger et al., Science 260:1950 (1993)). PCR amplifications were performed in 25 μl reactions containing cDNA generated from 2.5 ng of original RNA template, 300 nM each of gene specific forward and reverse primer (Table 1), and 12.5 μl of 2× QuantiTect SYBR Green PCR Mix (Qiagen Inc, Valencia, Calif.). […]

[2] = tested on: choline acetyltransferase (ChAT) mRNA; details: ethanol-exposed pup cerebellar tissue vs control
Experimental: as §1

[3] = tested on: IGF-I receptor; details: chronic ethanol feeding; temporal lobe, hypothalamus, and cerebellum
Source text: (§2) Male (˜200 g) Long Evans rats (Charles River Laboratories, Cambridge, Mass.) were fed isocaloric liquid diets (BioServ, Frenchtown, N.J.) in which ethanol comprised 0% or 37% of the caloric content (9.25% v/v) for 6 weeks (Yeon et al., Hepatology 38:703 (2003)). A chow fed control group was also studied. Rats were monitored daily to ensure equivalent food consumption and maintenance of body weight. Upon sacrifice, the brains were harvested and either immersion fixed in Histochoice fixative (Amresco Corp., Solon, Ohio) for paraffin embedding, or sliced fresh to micro-dissect temporal cortex, hypothalamus, and cerebellum. The fresh tissue blocks were snap frozen in a dry ice-methanol bath and stored at −80° C. for mRNA and protein studies.
(§3) Fresh frozen tissue (˜100 mg) was homogenized in 5 volumes of NP-40 lysis buffer (50 mM Tris-HCl, pH 7.5, 1% NP-40, 150 mM NaCl, 1 mM EDTA, 2 mM EGTA) containing protease inhibitors (1 mM PMSF, 0.1 mM TPCK, 1 μg/ml aprotinin, 1 μg/ml pepstatin A, 0.5 μg/ml leupeptin, 1 mM NaF, 1 mM Na4P2O7). Protein concentrations were determined using the bicinchoninic acid (BCA) assay (Pierce, Rockford, Ill.). Exploratory studies determined the amounts of protein and concentrations of radiolabeled ligand required to achieve 20% specific binding. Insulin receptor binding assays were performed using 100 μg protein. IGF-I binding assays required 25 μg protein per sample, and IGF-II receptor binding assays were optimized using 10 μg protein. Competitive equilibrium binding assays were used to assess growth factor binding in relation to ethanol exposure. For total binding, duplicate individual protein samples were incubated in 100 μl reactions containing binding buffer (100 mM HEPES, pH 8.0, 118 mM NaCl, 1.2 mM MgSO4, 8.8 mM dextrose, 5 mM KCl, 1% bovine serum albumin) and 100 nCi/ml of [^125I] (2000 Ci/mmol; […]) insulin, IGF-I, or IGF-II. To measure non-specific binding, replicate samples were identically prepared but with the addition of 0.1 μM unlabeled (cold) ligand.
(§4) All reactions were performed in 1.5 ml Eppendorff tubes, and the incubations were performed at 4° C. for 16 hours with gentle platform agitation. Bound radiolabeled tracer was then precipitated by adding 500 μl of 0.15% bovine gamma globulin (prepared in 100 mM Tris-HCl, pH 8.0) followed by 400 μl 37.5% polyethylene glycol 8000 (PEG-8000; prepared in 100 mM Tris-HCl, pH 8.0) to each tube. […] The samples were counted for 1 minute in an LKB CompuGamma CS Gamma counter. Specific binding was calculated by subtracting fmol of non-specific binding, i.e., amount bound in the presence of cold ligand, from the total fmol bound (absence of unlabeled competitive ligand). The results were analyzed and plotted using the GraphPad Prism 4 software (GraphPad Software, Inc., San Diego, Calif.). […]

[4] = tested on: IGF-II receptor; details: chronic ethanol feeding
Source text: as §2, §3, §4

[5] = tested on: insulin receptor; details: chronic ethanol feeding; temporal lobe, hypothalamus, and cerebellum
Source text: as §2, §3, §4

Question: How did the “AChE mRNA expression” value [1] turn out when `CCO` [ethanol] was run?
Answer: increases

Question: And the “ChAT mRNA expression” value [2]?
Answer: significant reductions

Question: And the IGF-I receptor binding [3]?
Answer: significantly reduced

Question: What about the IGF-II receptor binding ([4]; cerebella, relative to control rats) of the same compound?
Answer: significantly lower

Question: What about the IGF-II receptor binding ([4]; temporal lobe and hypothalamus) of the same compound?
Answer: relatively preserved

Question: What about the insulin receptor binding [5] of the same compound?
Answer: significantly reduced
